# Read-outs that look alike come from different tables or passages of the source.
# Columns and labels:
# human topoisomerase I = biological target: T1, human topoisomerase I (Homo sapiens, UniProt P11387); details: relative topoisomerase I inhibition levels, previously determined, six levels (0 - 5, +++++ = 5); cited from earlier work
# T1 sequence (P11387 1-765): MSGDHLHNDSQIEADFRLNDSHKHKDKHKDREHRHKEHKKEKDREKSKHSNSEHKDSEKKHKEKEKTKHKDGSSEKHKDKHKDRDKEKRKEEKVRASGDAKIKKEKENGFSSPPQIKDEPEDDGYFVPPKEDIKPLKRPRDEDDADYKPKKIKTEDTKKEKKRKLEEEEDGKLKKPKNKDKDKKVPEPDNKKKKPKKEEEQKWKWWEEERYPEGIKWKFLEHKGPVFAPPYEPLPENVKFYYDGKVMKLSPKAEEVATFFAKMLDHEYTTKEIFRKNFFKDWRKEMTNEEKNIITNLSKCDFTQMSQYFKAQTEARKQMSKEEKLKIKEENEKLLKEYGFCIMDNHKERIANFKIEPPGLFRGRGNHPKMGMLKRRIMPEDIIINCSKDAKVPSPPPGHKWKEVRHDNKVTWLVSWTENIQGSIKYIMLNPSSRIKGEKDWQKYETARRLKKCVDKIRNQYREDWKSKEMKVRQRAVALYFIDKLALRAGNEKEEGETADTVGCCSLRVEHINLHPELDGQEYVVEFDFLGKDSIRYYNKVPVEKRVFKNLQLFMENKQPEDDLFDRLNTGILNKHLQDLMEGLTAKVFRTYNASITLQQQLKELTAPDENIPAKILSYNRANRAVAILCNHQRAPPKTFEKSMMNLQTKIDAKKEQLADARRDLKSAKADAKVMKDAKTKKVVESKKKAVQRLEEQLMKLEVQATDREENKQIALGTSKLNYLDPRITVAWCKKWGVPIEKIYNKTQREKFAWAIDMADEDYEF
# NCI-60 cancer cell lines = assay: NCI-60 cancer cell line drug screen (GI50, MGM); assay type: cell-based, human; details: Homo sapiens; for GI50: read-out: Antiproliferative Activities [GI50 (μM)]; for mean GI50 across NCI-60 panel (MGM): average of GI50 values across the entire panel of NCI-60 cancer cell lines
# Experimental: Cancer cells were incubated with the test compounds at five concentrations ranging from 100 μM to 10 nM for 48 h. […] The approximate average of GI50 values across the entire panel of NCI-60 cancer cell lines for each compound was recorded as the MGM value.
# [1] = A549, Non-Small Cell Lung Cancer, A549/ATCC
# [2] = COLO 205, Colon Cancer, COLO 205
# [3] = DU-145, Prostate Cancer, DU-145
# [4] = EKVX, Non-Small Cell Lung Cancer, EKVX
# [5] = HCC 2998, Colon Cancer, HCC-2998
# [6] = HOP-92, Non-Small Cell Lung Cancer, HOP-92
# [7] = Hs-578T, Breast Cancer, HS 578T
# [8] = IGROV-1, Ovarian Cancer, IGROV1
# [9] = MDA-MB-231, Breast Cancer, MDA-MB-231/ATCC
# [10] = MDA-MB-435, Melanoma, MDA-MB-435
# [11] = MDA-MB-468, Breast Cancer, MDA-MB-468
# [12] = NCI-H23, Non-Small Cell Lung Cancer, NCI-H23
# [13] = NCI-H226, Non-Small Cell Lung Cancer, NCI-H226
# [14] = NCI-H322M, Non-Small Cell Lung Cancer, NCI-H322M
# [15] = NCI-H460, Non-Small Cell Lung Cancer, NCI-H460
# [16] = NCI-H522, Non-Small Cell Lung Cancer, NCI-H522
# [17] = OVCAR-3, Ovarian Cancer, OVCAR-3
# [18] = OVCAR-4, Ovarian Cancer, OVCAR-4
# [19] = OVCAR-5, Ovarian Cancer, OVCAR-5
# [20] = OVCAR-8, Ovarian Cancer, OVCAR-8
# [21] = SK-OV-3, Ovarian Cancer, SK-OV-3
smiles,measurement,setting,value
COc1cnc2c(c1)C(=O)c1c-2n(CCCNCCN2CCOCC2)c(=O)c2cc([N+](=O)[O-])ccc12 [Compound 11],Top1 Inhibiton,human topoisomerase I,"+++ (strong inhibition, +++, MYC expression inhibited at 0.5 to 1.0 μM)"
same,GI50,"NCI-60 cancer cell lines; 786-0, Renal Cancer, 786-0",0.22 µM
same,GI50,NCI-60 cancer cell lines; [1],0.12 µM
same,GI50,"NCI-60 cancer cell lines; ACHN, Renal Cancer, ACHN",0.04 µM
same,GI50,"NCI-60 cancer cell lines; BT-549, Breast Cancer, BT-549",0.29 µM
same,GI50,"NCI-60 cancer cell lines; CAKI-1, Renal Cancer, CAKI-1",0.04 µM
same,GI50,"NCI-60 cancer cell lines; CCRF-CEM, Leukemia, CCRF-CEM",0.05 µM
same,GI50,NCI-60 cancer cell lines; [2],0.3 µM
same,GI50,NCI-60 cancer cell lines; [3],0.06 µM
same,GI50,NCI-60 cancer cell lines; [4],0.45 µM
same,GI50,NCI-60 cancer cell lines; [5],0.3 µM
same,GI50,"NCI-60 cancer cell lines; HCT-15, Colon Cancer, HCT-15",0.3 µM
same,GI50,"NCI-60 cancer cell lines; HL-60, Leukemia, HL-60(TB)",0.1 µM
same,GI50,NCI-60 cancer cell lines; [6],0.87 µM
same,GI50,"NCI-60 cancer cell lines; HT-29, Colon Cancer, HT29",0.15 µM
same,GI50,NCI-60 cancer cell lines; [7],3.85 µM
same,GI50,NCI-60 cancer cell lines; [8],0.42 µM
same,GI50,"NCI-60 cancer cell lines; K562, Leukemia, K-562",0.23 µM
same,GI50,"NCI-60 cancer cell lines; KM12, Colon Cancer, KM12",0.4 µM
same,GI50,"NCI-60 cancer cell lines; LOX IMVI, Melanoma, LOX IMVI",0.04 µM
same,GI50,"NCI-60 cancer cell lines; Leukemia, SR",0.02 µM
same,GI50,"NCI-60 cancer cell lines; MCF7, Breast Cancer, MCF7",0.03 µM
same,GI50,NCI-60 cancer cell lines; [9],0.63 µM
same,GI50,NCI-60 cancer cell lines; [10],0.42 µM
same,GI50,NCI-60 cancer cell lines; [11],0.12 µM
same,GI50,"NCI-60 cancer cell lines; MOLT-4, Leukemia, MOLT-4",0.03 µM
same,GI50,"NCI-60 cancer cell lines; Malme-3M, Melanoma, MALME-3M",0.34 µM
same,GI50,"NCI-60 cancer cell lines; Melanoma, M14",0.07 µM
same,GI50,NCI-60 cancer cell lines; [12],0.15 µM
same,GI50,NCI-60 cancer cell lines; [13],0.17 µM
same,GI50,NCI-60 cancer cell lines; [14],0.28 µM
same,GI50,NCI-60 cancer cell lines; [15],0.04 µM
same,GI50,NCI-60 cancer cell lines; [16],0.08 µM
same,GI50,NCI-60 cancer cell lines; [17],0.32 µM
same,GI50,NCI-60 cancer cell lines; [18],0.33 µM
same,GI50,NCI-60 cancer cell lines; [19],0.45 µM
same,GI50,NCI-60 cancer cell lines; [20],0.17 µM
same,GI50,"NCI-60 cancer cell lines; Ovarian Cancer, NCl/ADR-RES",0.13 µM
same,GI50,"NCI-60 cancer cell lines; Prostate Cancer, PC-3",0.57 µM
same,GI50,"NCI-60 cancer cell lines; RPMI-8226, Leukemia, RPMI-8226",0.17 µM
same,GI50,"NCI-60 cancer cell lines; RXF 393, Renal Cancer, RXF 393",0.39 µM
same,GI50,"NCI-60 cancer cell lines; Renal Cancer, U0-31",0.05 µM
same,GI50,"NCI-60 cancer cell lines; SF-268, CNS Cancer, SF-268",0.08 µM
same,GI50,"NCI-60 cancer cell lines; SF-295, CNS Cancer, SF-295",0.07 µM
same,GI50,"NCI-60 cancer cell lines; SF-539, CNS Cancer, SF-539",0.31 µM
same,GI50,"NCI-60 cancer cell lines; SK-MEL-2, Melanoma, SK-MEL-2",1.59 µM
same,GI50,"NCI-60 cancer cell lines; SK-MEL-5, Melanoma, SK-MEL-5",0.26 µM
same,GI50,"NCI-60 cancer cell lines; SK-MEL-28, Melanoma, SK-MEL-28",1.13 µM
same,GI50,NCI-60 cancer cell lines; [21],0.14 µM
same,GI50,"NCI-60 cancer cell lines; SNB-19, CNS Cancer, SNB-19",0.11 µM
same,GI50,"NCI-60 cancer cell lines; SNB-75, CNS Cancer, SNB-75",0.27 µM
same,GI50,"NCI-60 cancer cell lines; SW-620, Colon Cancer, SW-620",0.13 µM
same,GI50,"NCI-60 cancer cell lines; T47D, Breast Cancer, T-47D",0.11 µM
same,GI50,"NCI-60 cancer cell lines; TK-10, Renal Cancer, TK-10",0.73 µM
same,GI50,"NCI-60 cancer cell lines; U-251, CNS Cancer, U251",0.08 µM
same,GI50,"NCI-60 cancer cell lines; UACC-62, Melanoma, UACC-62",0.04 µM
same,GI50,"NCI-60 cancer cell lines; UACC-257, Melanoma, UACC-257",0.59 µM
same,mean GI50 across NCI-60 panel (MGM),NCI-60 cancer cell lines,177 nM
CNCCCn1c2c(c3ccc([N+](=O)[O-])cc3c1=O)C(=O)c1cc(OC)cnc1-2 [Compound 10],Top1 Inhibiton,human topoisomerase I,"+++ (strong inhibition, +++, MYC expression inhibited at 0.5 to 1.0 μM)"
same,GI50,"NCI-60 cancer cell lines; 786-0, Renal Cancer, 786-0",0.04 µM
same,GI50,"NCI-60 cancer cell lines; A498, Renal Cancer, A498",0.03 µM
same,GI50,NCI-60 cancer cell lines; [1],0.07 µM
same,GI50,"NCI-60 cancer cell lines; ACHN, Renal Cancer, ACHN",0.04 µM
same,GI50,"NCI-60 cancer cell lines; BT-549, Breast Cancer, BT-549",0.37 µM
same,GI50,"NCI-60 cancer cell lines; CAKI-1, Renal Cancer, CAKI-1",0.03 µM
same,GI50,"NCI-60 cancer cell lines; CCRF-CEM, Leukemia, CCRF-CEM",0.04 µM
same,GI50,NCI-60 cancer cell lines; [2],0.06 µM
same,GI50,NCI-60 cancer cell lines; [3],0.05 µM
same,GI50,NCI-60 cancer cell lines; [4],0.27 µM
same,GI50,NCI-60 cancer cell lines; [5],0.2 µM
same,GI50,"NCI-60 cancer cell lines; HCT-15, Colon Cancer, HCT-15",0.12 µM
same,GI50,"NCI-60 cancer cell lines; HCT-116, Colon Cancer, HCT-116",0.03 µM
same,GI50,"NCI-60 cancer cell lines; HL-60, Leukemia, HL-60(TB)",0.04 µM
same,GI50,NCI-60 cancer cell lines; [6],0.24 µM
same,GI50,"NCI-60 cancer cell lines; HT-29, Colon Cancer, HT29",0.06 µM
same,GI50,NCI-60 cancer cell lines; [7],1.17 µM
same,GI50,NCI-60 cancer cell lines; [8],0.21 µM
same,GI50,"NCI-60 cancer cell lines; K562, Leukemia, K-562",0.04 µM
same,GI50,"NCI-60 cancer cell lines; KM12, Colon Cancer, KM12",0.16 µM
same,GI50,"NCI-60 cancer cell lines; LOX IMVI, Melanoma, LOX IMVI",0.03 µM
same,GI50,"NCI-60 cancer cell lines; Leukemia, SR",0.01 µM
same,GI50,"NCI-60 cancer cell lines; MCF7, Breast Cancer, MCF7",0.01 µM
same,GI50,NCI-60 cancer cell lines; [9],0.27 µM
same,GI50,NCI-60 cancer cell lines; [10],0.15 µM
same,GI50,NCI-60 cancer cell lines; [11],0.03 µM
same,GI50,"NCI-60 cancer cell lines; MOLT-4, Leukemia, MOLT-4",0.03 µM
same,GI50,"NCI-60 cancer cell lines; Malme-3M, Melanoma, MALME-3M",0.18 µM
same,GI50,"NCI-60 cancer cell lines; Melanoma, M14",0.04 µM
same,GI50,NCI-60 cancer cell lines; [12],0.04 µM
same,GI50,NCI-60 cancer cell lines; [13],0.09 µM
same,GI50,NCI-60 cancer cell lines; [14],0.16 µM
same,GI50,NCI-60 cancer cell lines; [15],0.02 µM
same,GI50,NCI-60 cancer cell lines; [16],0.08 µM
same,GI50,NCI-60 cancer cell lines; [17],0.17 µM
same,GI50,NCI-60 cancer cell lines; [18],0.17 µM
same,GI50,NCI-60 cancer cell lines; [19],0.14 µM
same,GI50,NCI-60 cancer cell lines; [20],0.09 µM
same,GI50,"NCI-60 cancer cell lines; Ovarian Cancer, NCl/ADR-RES",0.06 µM
same,GI50,"NCI-60 cancer cell lines; Prostate Cancer, PC-3",0.13 µM
same,GI50,"NCI-60 cancer cell lines; RPMI-8226, Leukemia, RPMI-8226",0.08 µM
same,GI50,"NCI-60 cancer cell lines; RXF 393, Renal Cancer, RXF 393",0.07 µM
same,GI50,"NCI-60 cancer cell lines; Renal Cancer, U0-31",0.03 µM
same,GI50,"NCI-60 cancer cell lines; SF-268, CNS Cancer, SF-268",0.07 µM
same,GI50,"NCI-60 cancer cell lines; SF-295, CNS Cancer, SF-295",0.03 µM
same,GI50,"NCI-60 cancer cell lines; SF-539, CNS Cancer, SF-539",0.05 µM
same,GI50,"NCI-60 cancer cell lines; SK-MEL-2, Melanoma, SK-MEL-2",0.35 µM
same,GI50,"NCI-60 cancer cell lines; SK-MEL-5, Melanoma, SK-MEL-5",0.11 µM
same,GI50,"NCI-60 cancer cell lines; SK-MEL-28, Melanoma, SK-MEL-28",0.39 µM
same,GI50,NCI-60 cancer cell lines; [21],0.06 µM
same,GI50,"NCI-60 cancer cell lines; SN12C, Renal Cancer, SN12C",0.05 µM
same,GI50,"NCI-60 cancer cell lines; SNB-19, CNS Cancer, SNB-19",0.04 µM
same,GI50,"NCI-60 cancer cell lines; SNB-75, CNS Cancer, SNB-75",0.13 µM
same,GI50,"NCI-60 cancer cell lines; SW-620, Colon Cancer, SW-620",0.03 µM
same,GI50,"NCI-60 cancer cell lines; T47D, Breast Cancer, T-47D",0.03 µM
same,GI50,"NCI-60 cancer cell lines; TK-10, Renal Cancer, TK-10",0.32 µM
same,GI50,"NCI-60 cancer cell lines; U-251, CNS Cancer, U251",0.04 µM
same,GI50,"NCI-60 cancer cell lines; UACC-257, Melanoma, UACC-257",0.18 µM
same,mean GI50 across NCI-60 panel (MGM),NCI-60 cancer cell lines,74 nM

# — US20210382058A1, “PATIENT SELECTION FOR TREATMENT OF MYC POSITIVE CANCERS WITH INDENOISOQUINOLINES” (Purdue Research Foundation, priority 2020, published 2021)
